According to US8067454B2, “Thio-substituted Anthra [1, 2-d] imidazole- 6, 11-dione derivatives, preparation method and application thereof” (National Defense Medical Center, priority 2010, dated 2011):

Tests used:
A549/ATCC = test: NCI 60-cell drug screen, Non-Small Cell Lung Cancer A549/ATCC; assay type: cell-based, human; details: 1.00E−5 Molar
HOP-62 = test: NCI 60-cell drug screen, Non-Small Cell Lung Cancer HOP-62; assay type: cell-based, human; details: 1.00E−5 Molar
U251 = test: NCI 60-cell drug screen, CNS Cancer U251; assay type: cell-based, human; details: 1.00E−5 Molar
OVCAR-5 = test: NCI 60-cell drug screen, Ovarian Cancer OVCAR-5; assay type: cell-based, human; details: 1.00E−5 Molar
MALME-3M = test: NCI 60-cell drug screen, Melanoma MALME-3M; assay type: cell-based, human; details: 1.00E−5 Molar
NCI-H522 = test: NCI 60-cell drug screen, Non-Small Cell Lung Cancer NCI-H522; assay type: cell-based, human; details: 1.00E−5 Molar
SK-OV-3 = test: NCI 60-cell drug screen, Ovarian Cancer SK-OV-3; assay type: cell-based, human; details: 1.00E−5 Molar
HCC-2998 = test: NCI 60-cell drug screen, Colon Cancer HCC-2998; assay type: cell-based, human; details: 1.00E−5 Molar
SF-295 = test: NCI 60-cell drug screen, CNS Cancer SF-295; assay type: cell-based, human; details: 1.00E−5 Molar
HL-60(TB) = test: NCI 60-cell drug screen, Leukemia HL-60(TB); assay type: cell-based, human; details: 1.00E−5 Molar
LOX IMVI = test: NCI 60-cell drug screen, Melanoma LOX IMVI; assay type: cell-based, human; details: 1.00E−5 Molar
OVCAR-8 = test: NCI 60-cell drug screen, Ovarian Cancer OVCAR-8; assay type: cell-based, human; details: 1.00E−5 Molar
A498 = test: NCI 60-cell drug screen, Renal Cancer A498; assay type: cell-based, human; details: 1.00E−5 Molar
MCF7 = test: NCI 60-cell drug screen, Breast Cancer MCF7; assay type: cell-based, human; details: 1.00E−5 Molar
NCI-H23 = test: NCI 60-cell drug screen, Non-Small Cell Lung Cancer NCI-H23; assay type: cell-based, human; details: 1.00E−5 Molar
M14 = test: NCI 60-cell drug screen, Melanoma M14; assay type: cell-based, human; details: 1.00E−5 Molar
786-0 = test: NCI 60-cell drug screen, Renal Cancer 786-0; assay type: cell-based, human; details: 1.00E−5 Molar
HOP-92 = test: NCI 60-cell drug screen, Non-Small Cell Lung Cancer HOP-92; assay type: cell-based, human; details: 1.00E−5 Molar
SN12C = test: NCI 60-cell drug screen, Renal Cancer SN12C; assay type: cell-based, human; details: 1.00E−5 Molar
SK-MEL-28 = test: NCI 60-cell drug screen, Melanoma SK-MEL-28; assay type: cell-based, human; details: 1.00E−5 Molar
T-47D = test: NCI 60-cell drug screen, Breast Cancer T-47D; assay type: cell-based, human; details: 1.00E−5 Molar
UO-31 = test: NCI 60-cell drug screen, Renal Cancer UO-31; assay type: cell-based, human; details: 1.00E−5 Molar
HCT-15 = test: NCI 60-cell drug screen, Colon Cancer HCT-15; assay type: cell-based, human; details: 1.00E−5 Molar
SF-268 = test: NCI 60-cell drug screen, CNS Cancer SF-268; assay type: cell-based, human; details: 1.00E−5 Molar
UACC-257 = test: NCI 60-cell drug screen, Melanoma UACC-257; assay type: cell-based, human; details: 1.00E−5 Molar
SW-620 = test: NCI 60-cell drug screen, Colon Cancer SW-620; assay type: cell-based, human; details: 1.00E−5 Molar
SNB-19 = test: NCI 60-cell drug screen, CNS Cancer SNB-19; assay type: cell-based, human; details: 1.00E−5 Molar
OVCAR-4 = test: NCI 60-cell drug screen, Ovarian Cancer OVCAR-4; assay type: cell-based, human; details: 1.00E−5 Molar
SK-MEL-2 = test: NCI 60-cell drug screen, Melanoma SK-MEL-2; assay type: cell-based, human; details: 1.00E−5 Molar
DU-145 = test: NCI 60-cell drug screen, Prostate Cancer DU-145; assay type: cell-based, human; details: 1.00E−5 Molar
NCI/ADR-RES = test: NCI 60-cell drug screen, Ovarian Cancer NCI/ADR-RES; assay type: cell-based, human; details: 1.00E−5 Molar
Procedure: In brief, cellular protein levels were determined after 48 hours of drug exposure by sulforhodamine B colorimetry. Through the use of a time 0 cell control, the cell growth can be determined for each cell line thus allowing calculations of the 50% growth inhibitory concentration (GI50), the total growth inhibition (TGI), and the 50% lethal concentration (LC50). Comparison to plates not exposed to drug permits determination of concentration and times of exposure conferring 50% net growth inhibition (GI50), TGI, and 50% cell kill (LC50).
From the data analysis it follows that approximately 95% of the actives (potent anticancer drugs) from the 60 cell line screen can be identified. By these criteria, 6 compounds (each with its certification number, refer to Table 2) of the invention were reported that having anticancer activity.
The screening system in United State National Cancer Institute (NCI) consists of 60 kinds of different human cancer cells, which can be used to assay the growth-inhibiting ability or cell toxicity of a compound against various cancer and tumor at a certain concentration.
NCI had selected 6 compounds f1-0, f1-1, f3-1, f1-11, f1-2 and f1-15 as test compounds (Table 2). Among these compounds, compound f1-1 was effective against renal cancer cell strain CAKI-1, and could achieve an inhibition effect on the growth of said cancer cell up to −8.01. Compound f1-11 could achieve inhibiting effects against leukemia cell line CCRF-CEM and RPMI-8226, up to −15.39 and −60.17, respectively. Compound f1-2 was effective against central nervous system cancer cell line SNB-75, and could achieve an effect of inhibiting said cancer cell growth up to −9.55. Compound f1-15 was effective against leukemia (blood cancer) cell line K-562, MOLT-4, and RPMI-8226, and could achieve effects of inhibiting said cancer cells growth up to −31.59, −2.90 and −13.69, respectively. Further, compound f1-15 was effective also against renal cancer cell line CAKI-1, and could achieve an effect of inhibiting said cancer cell growth up to −14.89.

MOLT-4 = test: NCI 60-cell drug screen, Leukemia MOLT-4; assay type: cell-based, human; details: 1.00E−5 Molar
PC-3 = test: NCI 60-cell drug screen, Prostate Cancer PC-3; assay type: cell-based, human; details: 1.00E−5 Molar
RXF 393 = test: NCI 60-cell drug screen, Renal Cancer RXF 393; assay type: cell-based, human; details: 1.00E−5 Molar
ACHN = test: NCI 60-cell drug screen, Renal Cancer ACHN; assay type: cell-based, human; details: 1.00E−5 Molar
GBM8901 = test: MTT assay, GBM8901 tumor cell; details: concentration 10 μM, tumor cell
UACC-62 = test: NCI 60-cell drug screen, Melanoma UACC-62; assay type: cell-based, human; details: 1.00E−5 Molar
GBM8401 = test: MTT assay, GBM8401 tumor cell; details: concentration 10 μM, tumor cell
RPMI-8226 = test: NCI 60-cell drug screen, Leukemia RPMI-8226; assay type: cell-based, human; details: 1.00E−5 Molar

For `O=C1c2ccccc2C(=O)c2c1ccc1nc(SCCN3CCCC3)[nH]c21` [f1-11], the “Growth Percent, A549/ATCC” value (A549/ATCC) was 35.52%, the “Growth Percent, HOP-62” value (HOP-62) was 73.74% and the “Growth Percent, U251” value (U251) was 69.07%. For the same molecule, the “Growth Percent, OVCAR-5” value (OVCAR-5) was 87.49%, the “Growth Percent, MALME-3M” value (MALME-3M) was 112.31% and the “Growth Percent, NCI-H522” value (NCI-H522) was 81.51%. The “Growth Percent, SK-OV-3” value (SK-OV-3) was 55.57%, the “Growth Percent, HCC-2998” value (HCC-2998) was 71.50% and the “Growth Percent, SF-295” value (SF-295) was 76.91%. The “Growth Percent, HL-60(TB)” value (HL-60(TB)) was 37.41%, the “Growth Percent, LOX IMVI” value (LOX IMVI) was 11.89% and the “Growth Percent, OVCAR-8” value (OVCAR-8) was 49.38%. The “Growth Percent, A498” value (A498) was 71.37%, the “Growth Percent, MCF7” value (MCF7) was 30.88% and the “Growth Percent, NCI-H23” value (NCI-H23) was 66.93%. For the same molecule, the “Growth Percent, M14” value (M14) was 70.87%, the “Growth Percent, 786-0” value (786-0) was 77.12% and the “Growth Percent, HOP-92” value (HOP-92) was 35.17%. The “Growth Percent, SN12C” value (SN12C) was 52.94%, the “Growth Percent, SK-MEL-28” value (SK-MEL-28) was 100.23% and the “Growth Percent, T-47D” value (T-47D) was 83.06%. The “Growth Percent, UO-31” value (UO-31) was 21.22%, the “Growth Percent, HCT-15” value (HCT-15) was 40.36% and the “Growth Percent, SF-268” value (SF-268) was 42.04%. For the same molecule, the “Growth Percent, UACC-257” value (UACC-257) was 92.77%, the “Growth Percent, SW-620” value (SW-620) was 22.75% and the “Growth Percent, SNB-19” value (SNB-19) was 60.47%. For the same molecule, the “Growth Percent, OVCAR-4” value (OVCAR-4) was 57.23%, the “Growth Percent, SK-MEL-2” value (SK-MEL-2) was 106.62% and the “Growth Percent, DU-145” value (DU-145) was 17.91%. For the same molecule, the “Growth Percent, NCI/ADR-RES” value (NCI/ADR-RES) was 53.74%, the “Growth Percent, MOLT-4” value (MOLT-4) was 30.94% and the “Growth Percent, PC-3” value (PC-3) was 6.90%. For the same molecule, the “Growth Percent, RXF 393” value (RXF 393) was 22.62%, the “Growth Percent, ACHN” value (ACHN) was 34.58% and the “Cell survival rate (%) GBM8901” value (GBM8901) was 18 ± 2%. For the same molecule, the “Growth Percent, UACC-62” value (UACC-62) was 80.95%, the “Cell survival rate (%) GBM8401” value (GBM8401) was 78 ± 10% and the “Growth Percent, RPMI-8226” value (RPMI-8226) was −60.17%.
